In test [1] the test system is Mycosphaerella graminicola; Anamorph: Septoria tritici; Bayer Code SEPTTR. Briefly: Leaf blotch of wheat, foliar fungicide treatment, one day protectant (1DP) or three day curative (3DC). It counts as in vivo, Septoria tritici on wheat plants (variety Yuma). The settings on record: Zymoseptoria tritici.
The subject of test [2] is Cercospora beticola; Bayer Code CERCBE. The test is described as follows: Leaf spot of sugar beets. The test is classed as in vivo, Cercospora beticola on sugar beets (variety HH-88). The settings on record: 24 h, % disease control rating, one day protectant; for pest or weed control at 25 ppm: read-out: CERCBE 1 DP 25 ppm; for pest or weed control at 75 ppm: read-out: CERCBE 1 DP 75 ppm.

For test [3], the system named is Venturia inaequalis; Bayer Code VENTIN. Briefly: Apple scab. It counts as in vivo. The settings on record: 24 h, % disease control rating, one day protectant; for pest or weed control at 25 ppm: read-out: VENTIN 1 DP 25 ppm; for pest or weed control at 75 ppm: read-out: VENTIN 1 DP 75 ppm.
Setting [4] is: 24 h, one day protectant, rating of percent disease control, read-out: SETTTR 1DP 25 ppm.
[5] abbreviates: 24 h, one day protectant, rating of percent disease control, read-out: SEPTTR 1DP 100 ppm.
[6] abbreviates: 72 h, three day curative, rating of percent disease control, read-out: SEPTTR 3DC 25 ppm.
The mark [7] stands for this setting: 72 h, three day curative, rating of percent disease control, read-out: SEPTTR 3DC 100 ppm.
The mark [8] stands for this setting: 24 h, one day protectant (1DP), rating of percent disease control, read-out: SETTTR 1DP 25 ppm.
[9] abbreviates: 24 h, one day protectant (1DP), rating of percent disease control, read-out: SEPTTR 1DP 100 ppm.
Setting [10] is: 72 h, three day curative (3DC), rating of percent disease control, read-out: SEPTTR 3DC 25 ppm.
[11] abbreviates: 72 h, three day curative (3DC), rating of percent disease control, read-out: SEPTTR 3DC 100 ppm.
Where [12] appears, read: 24 h, one day protectant (1DP), percent disease control rating, read-out: SETTTR 1DP 25 ppm.
The mark [13] stands for this setting: 24 h, one day protectant (1DP), percent disease control rating, read-out: SEPTTR 1DP 100 ppm.
The mark [14] stands for this setting: 72 h, three day curative (3DC), percent disease control rating, read-out: SEPTTR 3DC 25 ppm.
Where [15] appears, read: 72 h, three day curative (3DC), percent disease control rating, read-out: SEPTTR 3DC 100 ppm.

Read-outs that look alike come from different tables or passages of the source.

`CN(C)/C=N/c1nc(OCc2cccs2)ncc1F` [Compound 570]: the pest or weed control at 25 ppm lay in the range of 76 to 100% in test [1] (setting [4]), 76 to 100% in test [1] (setting [6]), 0 to 25% in test [2] and 26 to 50% in test [3]. In addition, the pest or weed control at 100 ppm in test [1] (setting [5]) and in test [1] (setting [7]) was 76 to 100% each time. In addition, the pest or weed control at 75 ppm in test [2] was in the range of 26 to 50%; in test [3] it was 76 to 100%.

Turning to `Nc1nc(OCCN2CCCC2=O)ncc1F` [Compound 270], the pest or weed control at 25 ppm fell in the range of 0 to 25% in test [1] (setting [8]), 0 to 25% in test [1] (setting [10]), 26 to 50% in test [2] and 0 to 25% in test [3]. The pest or weed control at 100 ppm in test [1] (setting [9]) and in test [1] (setting [11]) was 0 to 25% in each case. Further, the pest or weed control at 75 ppm in test [2] and in test [3] was 26 to 50% in each case.

Consider `N#CN/C=N/c1nc(OCc2ccc(F)cc2)ncc1F` [Compound 23, N-[5-Fluoro-2-(4-fluorobenzyloxy)pyrimidin-4-yl]-N′-cyanoformamidine], for which the pest or weed control at 25 ppm in test [1] (setting [12]) was 76 to 100%; in test [1] (setting [14]), 76 to 100%; in test [2] it was 0 to 25%; in test [3], 51 to 75%. In addition, the pest or weed control at 100 ppm in test [1] (setting [13]) and in test [1] (setting [15]) was 76 to 100% each time. Further, the pest or weed control at 75 ppm lay within 51 to 75% in test [2] and 76 to 100% in test [3].

As for `Fc1cnc(OCc2cccs2)nc1N1CCOCC1` [Compound 845], the pest or weed control at 50 ppm in test [1] (24 h, % disease control rating, one day protectant, 50 ppm) fell in the range of 76 to 100%. The molecule further showed a pest or weed control at 200 ppm in test [1] (24 h, % disease control rating, one day protectant, 200 ppm) of 76 to 100%. In test [2], the pest or weed control at 25 ppm fell in the range of 0 to 25% and the pest or weed control at 75 ppm lay within 0 to 25%. Also, in test [3], the pest or weed control at 25 ppm lay within 26 to 50% and the pest or weed control at 75 ppm fell in the range of 26 to 50%.

On to `Nc1nc(OCc2cnc(Cl)c(Cl)c2)ncc1F` [Compound 582], for which the pest or weed control at 25 ppm in test [1] (setting [4]) was in the range of 76 to 100%; in test [1] (setting [6]) it was 76 to 100%; in test [2], 51 to 75%; in test [3], 76 to 100%. Also, the pest or weed control at 100 ppm in test [1] (setting [5]) and in test [1] (setting [7]) was 76 to 100% throughout. Also, the figures for the pest or weed control at 75 ppm in test [2] and in test [3] were 51 to 75% and 76 to 100%, respectively.

On to `Nc1nc(OCc2coc(Cc3ccccc3)c2)ncc1F` [Compound 69], for which the pest or weed control at 25 ppm lay in the range of 76 to 100% in test [1] (setting [12]), 51 to 75% in test [1] (setting [14]), 0 to 25% in test [2] and 51 to 75% in test [3]. Further, the pest or weed control at 100 ppm in test [1] (setting [13]) and in test [1] (setting [15]) was 76 to 100% throughout. The pest or weed control at 75 ppm in test [2] lay within 26 to 50%; in test [3], 76 to 100%.

Turning to `NN(c1nc(OCc2ccc(F)cc2)ncc1F)C1CCCCC1` [Compound 353], the pest or weed control at 25 ppm in test [1] (setting [8]) fell in the range of 0 to 25%; in test [1] (setting [10]), 0 to 25%; in test [2], 26 to 50%; in test [3], 26 to 50%. Moreover, the pest or weed control at 100 ppm in test [1] (setting [9]) and in test [1] (setting [11]) was 0 to 25% throughout. In addition, the pest or weed control at 75 ppm in test [2] fell in the range of 26 to 50%; in test [3], 76 to 100%.

For `CCOCNc1nc(OCc2ccc(OC)c(F)c2)ncc1F` [Compound 452], the pest or weed control at 25 ppm in test [1] (setting [8]) lay in the range of 76 to 100%; in test [1] (setting [10]), 76 to 100%; in test [2] it was 0 to 25%; in test [3], 0 to 25%. In addition, the pest or weed control at 100 ppm in test [1] (setting [9]) and in test [1] (setting [11]) was 76 to 100% in each case. Besides, the values for the pest or weed control at 75 ppm in test [2] and in test [3] were 0 to 25% and 26 to 50%, respectively.

Consider `C/C(=N\Oc1ncc(F)c(N)n1)c1ccccc1` [Compound 4, 1-Phenyl-ethanone-O-(4-amino-5-fluoropyrimidin-2-yl)oxime], for which the pest or weed control at 25 ppm in test [1] (setting [12]), in test [1] (setting [14]), in test [2] and in test [3] was 76 to 100% each time. For the same molecule, the pest or weed control at 100 ppm in test [1] (setting [13]) and in test [1] (setting [15]) was 76 to 100% in each case. Further, the pest or weed control at 75 ppm in test [2] and in test [3] was 76 to 100% in each case.

In the case of `CCNN(CC)c1nc(OCc2ccc(F)cc2)ncc1F` [Compound 352], the pest or weed control at 25 ppm in test [1] (setting [8]), in test [1] (setting [10]), in test [2] and in test [3] was 0 to 25% in each case. Also, the pest or weed control at 100 ppm in test [1] (setting [9]) and in test [1] (setting [11]) was 0 to 25% each time. In addition, the pest or weed control at 75 ppm fell in the range of 0 to 25% in test [2] and 26 to 50% in test [3].

Regarding `CC/C(=N\c1nc(OCc2ccc(F)cc2)ncc1F)N(C)C` [Compound 24, N′-[5-Fluoro-2-(4-fluorobenzyloxy)pyrimidin-4-yl]-N,N-dimethyl-propionamidine], the pest or weed control at 25 ppm fell in the range of 76 to 100% in test [1] (setting [12]), 76 to 100% in test [1] (setting [14]), 0 to 25% in test [2] and 26 to 50% in test [3]. Moreover, the pest or weed control at 100 ppm in test [1] (setting [13]) and in test [1] (setting [15]) was 76 to 100% throughout. For the same molecule, the figures for the pest or weed control at 75 ppm in test [2] and in test [3] were 0 to 25% and 76 to 100%, respectively.

As for `Nc1nc(OCc2ccccc2N2CCOCC2)ncc1F` [Compound 342], the pest or weed control at 25 ppm in test [1] (setting [8]) lay in the range of 76 to 100%; in test [1] (setting [10]), 76 to 100%; in test [2], 26 to 50%; in test [3] it was 76 to 100%. The pest or weed control at 100 ppm in test [1] (setting [9]) and in test [1] (setting [11]) was 76 to 100% in each case. Moreover, the pest or weed control at 75 ppm in test [2] and in test [3] was 76 to 100% in each case.

As for `COc1ccccc1CCOc1ncc(F)c(N)n1` [Compound 524], the pest or weed control at 25 ppm in test [1] (setting [8]) was 0 to 25%; in test [1] (setting [10]), 0 to 25%; in test [2] it was 0 to 25%; in test [3], 51 to 75%. Also, the pest or weed control at 100 ppm in test [1] (setting [9]) and in test [1] (setting [11]) was 51 to 75% each time. The figures for the pest or weed control at 75 ppm in test [2] and in test [3] were 0 to 25% and 51 to 75%, respectively.

`COc1c(F)cccc1COc1ncc(F)c(N)n1` [Compound 341]: the pest or weed control at 25 ppm lay within 76 to 100% in test [1] (setting [8]), 76 to 100% in test [1] (setting [10]), 0 to 25% in test [2] and 26 to 50% in test [3]. The pest or weed control at 100 ppm in test [1] (setting [9]) and in test [1] (setting [11]) was 76 to 100% in each case. The pest or weed control at 75 ppm in test [2] and in test [3] was 0 to 25% in each case.

For `Nc1nc(OCc2ccc(OCC(F)(F)F)nc2)ncc1F` [Compound 79], the pest or weed control at 25 ppm lay within 76 to 100% in test [1] (setting [12]), 76 to 100% in test [1] (setting [14]), 0 to 25% in test [2] and 26 to 50% in test [3]. The pest or weed control at 100 ppm in test [1] (setting [13]) and in test [1] (setting [15]) was 76 to 100% each time. Moreover, the pest or weed control at 75 ppm in test [2] and in test [3] was 26 to 50% throughout.

Turning to `CS(=O)(=O)c1ccc(COc2ncc(F)c(N)n2)cc1` [Compound 207], the pest or weed control at 25 ppm in test [1] (setting [8]), in test [1] (setting [10]), in test [2] and in test [3] was 0 to 25% each time. The pest or weed control at 100 ppm in test [1] (setting [9]) was in the range of 26 to 50%; in test [1] (setting [11]), 0 to 25%. Further, the pest or weed control at 75 ppm lay in the range of 0 to 25% in test [2] and 26 to 50% in test [3].

The values are drawn from patent US9204653B2, “5-fluoro pyrimidine derivatives” (DOW AGROSCIENCES LLC, priority 2008, dated 2015).
